Results as given in US20090214669A1, “Combination anticancer therapy and pharmaceutical compositions therefore” (priority 2004, published 2009).
“Also recorded” adds a separate entry of the source. Like-named read-outs stand apart in the source and are kept apart here.

How the values were obtained:
PROb cells [1] = experiment: PROb i.p. rat colon cancer model, 5-FU combined with OM-174: carcinomatosis classes, ascites, survival; format: in vivo; conditions: day 61; for Number of rats in carcinomatosis class 0: Class 0: no visible nodule, 5-FU 30 mg/kg i.p. days 7 and 14, OM-174 1 mg/kg i.v. from day 21, 10 injections; for Number of rats in carcinomatosis class 1: Class 1: some countable nodules with a diameter from 0.1 to 0.3 cm; for Number of rats in carcinomatosis class 2: Class 2: many uncountable nodules with a diameter from 0.1 to 0.3 cm; for Number of rats in carcinomatosis class 3: Class 3: some nodules with a diameter of 1 cm invade the peritoneal cavity; for Number of rats in carcinomatosis class 4: Class 4: the cavity is completely invaded by tumor masses of several cm; for Ascites: measured by double weights of the rats
Experimental: On day 0 (D0), 106 PROb cells were injected i.p. to each rat. 5-FU was administered i.p. at the dose of 30 mg/kg on days 7 and 14. OM-174 was injected at the dose of 1 mg/kg i.v. from day 21 three times a week for a total of 10 injections.
All rats (controls and treated) were sacrificed by CO2 on day 61. The efficacy of the treatment was determined by read-outs such as survival (FIG. 5) and measure of the classes of cancer given depending on the number and the size of the nodules, and also by ascites measurements. Carcinomatoses were evaluated blindly. As it is impossible to measure the volume of a carcinomatosis, they were classified according to the number and diameter of the nodules: • Class 0: no visible nodule • Class 1: some countable nodules with a diameter from 0.1 to 0.3 cm • Class 2: many uncountable nodules with a diameter from 0.1 to 0.3 cm • Class 3: some nodules with a diameter of 1 cm invade the peritoneal cavity • Class 4: the cavity is completely invaded by tumor masses of several cm.
The ascite volume was measured by double weights of the rats.

[2] = test system: spleen cells expressing CD4, CD8, and NK1.1; experiment: Flow cytometric analysis of spleen cell subsets; format: in vivo, C57BL/6 mice; conditions: for NK (%): NK1.1 positive cells vs total spleen cells; for NK (%) / CD4^+ (%) / CD8^+ (%): mean ± S.E.M; for CD4^+ (%) / CD8^+ (%): positive cells vs total spleen cells
Experimental: Splenocytes from individual mice were analysed by flow cytometry. The following monoclonal antibodies were used for double fluorescence analysis of spleen cell subsets: fluorescein (FITC)-conjugated anti-mouse NK1.1 PE (PharMingen, San Diego, Calif.), PE-conjugated anti-mouse CD4 (PharMingen), FITC-conjugated anti-mouse CD8 (PharMingen). Approximately 1×10^6 spleen cells were resuspended in […] of CM and staining was performed at 4° C. for 30 minutes. Cells were then washed twice in PBS containing 0.02% sodium azide and flow cytometric analysis was performed using a FACscan flow cytometer (Becton Dickinson).
Fluorescence data were collected using a 488 nm excitation wavelength from a 15 mW air-cooled argon-ion laser. […] A minimum of 5,000 events were collected on each sample and acquired in list mode by a Hewlett Packard 9000 computer. To exclude dead cells, debris, non lymphoid cells, and cell aggregates, data collection was gated on live spleen lymphocytes by forward and side angle scatter. Data are represented as the percentage of positive cells over the total number of cells counted.

B16 melanoma cells = experiment: Cytotoxic (CTL) activity of spleen cells against autologous tumour cells, 51Cr-release assay; conditions: for CTL % cytotoxicity: E/T ratio 25:1
Description: (§2) Mice were sacrificed by cervical dislocation on day 14 after tumour inoculation.
(§3) In vitro-passaged YAC-1 cells (a Moloney-virus induced mouse T cells lymphoma of A/SN origin), and in vivo-passaged B16 melanoma cells, were used as target cells in a chromium-release assay. B16 melanoma cells were obtained from tumour-bearing mice, seeded in cell-culture flasks (Falcon, Becton Dickinson and Co., Plymouth, England) and used within the first week of culture in CM. B16 and YAC-1 cell lines were obtained from the laboratory collection, and were originally obtained from the American Tissue Culture Collection (ATCC).
(§4) The cytotoxic activity of the effector cells collected from individual mice was measured by a standard 4-hour ^51Cr-release assay. Briefly, target cells were harvested from the cultures, washed twice, resuspended at 5×10^6 cells in 0.9 ml of CM and labelled with 100 μCi (^51Cr) sodium chromate (New England Nuclear, Boston, Mass.) for 1 hour at 37° C. in a 5% CO2 incubator. […] The effector cells suspension was added to quadruplicate wells to give three E/T ratios (i.e. 100:1, 50:1, 25:1) in a final volume of 200 μl per well. The plates were then incubated for 4 hours at 37° C. in a 5% CO2 incubator, 100 μl of supernatants were collected from each well, and the radioactivity was measured using a gamma counter. Total mean cytotoxicity±S.E.M. were calculated from quadruplicate cpm values from individual spleens.
It has been tested from spleen cells from normal and tumour-bearing mice for specific cytotoxic activity against autologous tumour cells using in-vivo passaged B16 melanoma cells as target.

B16 melanoma = B16 melanoma model: tumour growth and survival time; format: in vivo, C57BL/6 mice; conditions: CY 200 mg/Kg i.p. day 7; OM-174 1 mg/kg i.p. days 8, 13, 18, 23, 28; vs untreated controls
Experimental: Four to six weeks-old male C57BL/6 mice were purchased from Charles River (Calco, Corno, Italy). B 16 melanoma tumour cells were serially passaged subcutaneously (s.c.) in syngenic mice. On day 0, mice were injected s.c. in the right flank with 2×10^5 B16 melanoma cells. Tumour growth was measured daily in each mouse, using calipers, and mean tumour diameter per day was calculated. At day 7 after tumour injection, all mice with s.c. tumours of about 2-3 mm diameter were divided into different experimental groups, i.e. phosphate buffered saline (PBS)-injected control 3, CY, OM-174 or CY with OM-174.
Cyclophosphamide (Sigma, St. Louis, Mo.) was dissolved at 20 mg/ml in PBS immediately before use, and 0.2 ml per mouse were injected intraperitoneally. Each treated animal received a single dose of 200 mg/Kg CY on day 7.
Kaplan-Meier method was used to estimate the survivor functions and Log-rank test was performed for testing the homogeneity of survival functions across the four groups (control, CY, OM-174, CY+OM-174).
Tumor growth was analyzed by T-test for unpaired data.

YAC-1 cells = experiment: NK activity of spleen cells, 4-hour 51Cr-release assay; conditions: for NK activity (in words): B16 melanoma-injected mice; for NK % cytotoxicity: E/T ratio 25:1, mean ± S.E.
Description: as §2, §3, §4
It has been therefore measured the cytotoxic activity of splenocytes against NK-sensitive (YAC-1) tumour cells.

[3] = test system: PROb subcutaneous colon tumors; format: in vivo, BDIX rats
PROb cells [4] = experiment: BDIX/PROb peritoneal carcinomatosis, cisplatin combined with OM-174, survival; format: in vivo, BDIX rats; conditions: cisplatin 3 mg/kg i.v. day 21; OM-174 1 mg/kg i.v., 5 injections every 5th day from day 28 or 35
Experimental: Colon cancer PROb cells were originally obtained from a tumor of a BDIX rat induced by 1,2-dimethylhydrazine.
The BDIX strain of rats was established in 1937 by H. Druckrey. Nowadays these rats come from Iffa-Credo (L'Asbresle, France).
BDIX rats, 4 months±1 month at the beginning of the experiment, 7 animals/group, received i.p. cultured syngenic PROb cells (i.p) on day 0. Cisplatin (3 mg/kg) was injected i.v. on day 21, and OM-174 treatment (1 mg/kg, 5 injections i.v. in the penile vein every 5th day) started either on days 28 or 35. Survival was followed until day 72 in the example presented here.
In this example, cisplatin (3 mg/kg i.v) is given on day 21. A further immunostimulating treatment with OM-174 is started only on day 28 or 35 (1 mg/kg, 5 injections i.v. every 5th day).

EMT-6 cells [5] = experiment: Direct radiosensitisation of EMT-6 cells, 8-day colony formation assay; format: cell-based, mouse
Experimental: (§1) Murine mammary adenocarcinoma EMT-6 cells were cultured in RPMI medium+10% bovine calf serum in plastic flasks. EMT-6 monolayer cultures grown to early confluence were exposed to OM-174 for 16 hours in both conditions (21% and 1% oxygen). After treatment with OM-174, nitrite determination using the classical Griess method was performed. Values were normalized for 200'000 cells per well.
Cells were then collected by trypsinization and the radioresponse was estimated as described previously (Van der Berge et al., 2001) Briefly, micropellets (0.5×10^6 cells) were produced in conical tubes by centrifugation at 300 g for 5 min. Metabolic oxygen depletion in micropellets was induced by incubation at 37° C. for 3 minutes prior to radiation. Micropellets were irradiated with a linear accelerator at a rate of 2 Gy per min and the survival fraction (SF) after 5, 10, 15, and 20 Gy was measured by a 8-day colony formation assay.

[6] = Single dose i.v. infusion study of OM-174 in cancer patients (tolerability, cytokines); format: in vivo
Experimental: Doses higher than 1 mg OM-174/m^2 by i.v. infusion were reached without unacceptable toxicity according to non-haematological grade III and haematological grade IV NCI Common Toxicity Criteria.
Secretion occurred in all steps, and appeared more “patient”- than “dose”-dependent.
The results of this single dose study led to the selection of three doses (0.6, 0.8, and 1.0 mg OM-174/m^2) for repeated i.v. injections (5 to 15 injections), used in a phase Ib study.

[7] = Pharmacokinetic data of OM-174 in man; conditions: human, in vivo, median and range; for Vd: read-out: Vss
EMT-6 cells [8] = experiment: Indirect radiosensitisation via OM-174-induced conditioned medium; format: cell-based, mouse; conditions: 3 μg/ml versus 0.3 μg/ml; conditioned medium from Whistar rats
EMT-6 cells [9] = experiment: NO production (nitrite, Griess method) by EMT-6 cells exposed to OM-174; format: cell-based, mouse; conditions: 16 hours
Experimental: as §1

ProB cells [10] = conditions: cited from earlier work
[11] = B16 tumour-bearing mice, day 14
[12] = B16 tumour-bearing mice, day 14, CY 200 mg/Kg i.p. day 7, OM-174 1 mg/kg i.p. days 8 and 13, mean ± S.E.

O=c1[nH]cc(F)c(=O)[nH]1 [5-FU, 5-Fluorouracil, reference compound]
Number of rats in carcinomatosis class 0 (PROb cells [1]): 2
Number of rats in carcinomatosis class 1 (PROb cells [1]): 0
Number of rats in carcinomatosis class 2 (PROb cells [1]): 0
Number of rats in carcinomatosis class 3 (PROb cells [1]): 0
Number of rats in carcinomatosis class 4 (PROb cells [1]): 8
Carcinomatosis classes versus Control group (Mann-Whitney test) (PROb cells [1]): No significant difference
Ascites (PROb cells [1]): 44 mL

O=P1(N(CCCl)CCCl)NCCCO1 (stereo not shown) [CY, cyclophosphamide, reference compound]
NK (%) [2, 11]: 4 ± 0.5%
CD4^+ (%) [2, 11]: 21.7 ± 1.8%
CD8^+ (%) [2, 11]: 6.4 ± 1.4%
CTL % cytotoxicity (B16 melanoma cells; [12]): 2.63 ± 0.2%
Cytotoxic activity against autologous tumour cells (in words) (B16 melanoma cells; tumour-bearing mice): not to be increased
B16 tumour growth (in words, FIG. 1) (B16 melanoma): inhibited slightly but significantly
Survival time (MST) of mice (in words, FIG. 2) (B16 melanoma): increased slightly but significantly
NK activity (in words) (YAC-1 cells; day 14): decreased NK activity
NK % cytotoxicity (YAC-1 cells; B16 tumour-bearing mice, day 14, CY 200 mg/Kg i.p. day 7, OM-174 1 mg/kg i.p. days 8 and 13): 2.3 ± 0.4%
Antitumoral effect of single treatment on large, established PROb tumors (in words, FIG. 3) ([3]; rat, in vivo): transient regression; also recorded: unable to cure animals
Number of cured animals/total number of animals ([3]; rat, in vivo): 0/6

N.N.[Cl][Pt][Cl] [Cisplatin, cisplatin, reference compound]
Antitumour activity / survival (in words, FIG. 4) (PROb cells [4]): only partial efficacy

CCCCCCCCCCCC(=O)O[C@H](CCCCCCCCCCC)CC(=O)N[C@@H]1C(O)[C@H](OP(=O)(O)O)C(CO)O[C@H]1OCC1O[C@H](OP(=O)(O)O)C(NC(=O)C[C@H](O)CCCCCCCCCCC)C(O)[C@@H]1O (stereo partly shown) [OM-174]
Direct radiosensibilizing effect (in words, FIG. 7) (EMT-6 cells [5]; 21% versus 1% oxygen): directly radiosensibilizing agent for cancer cells only in hypoxic conditions
Lowering of the radiation dose necessary to kill 90% of the cells versus absence of OM-174 (EMT-6 cells [5]; hypoxic conditions, at either 3 or 30 mg/ml (FIG. 7)): 1.67
Tolerability [6]: well tolerated
Doses reached without unacceptable toxicity ([6]; i.v. infusion, non-haematological grade III and haematological grade IV NCI Common Toxicity Criteria): higher than 1 mg OM-174/m^2
Cytokine secretion (TNF-α, IL-1b, IL-1ra, IL-6, IL-8, sTNF-RI, sTNF-RII, IL-10, IL-2, IL-2sRa, IFN-γ) ([6]; single dose study): secretion profile consistent with that of lipid A derivatives
NK (%) [2, 11]: 7.5 ± 0.5%
CD4^+ (%) [2, 11]: 27.0 ± 2.0%
CD8^+ (%) [2, 11]: 9.3 ± 1.8%
Percentages of CD4^+, CD8^+ and NK1.1 positive spleen cells (in words) ([2]; normal and tumour-bearing mice): increased the percentages
NK (%) ([2]; normal mice): 11.6 ± 2.1%
CD4^+ (%) ([2]; normal mice): 34.0 ± 2.5%
CD8^+ (%) ([2]; normal mice): 12.6 ± 1.5%
clearance ([7]; intravenous, Cancer patients): 1.7 mL/min
half-life ([7]; intravenous, Cancer patients): 20 h
Vd ([7]; intravenous, Cancer patients): 2.9 L
clearance ([7]; Healthy volunteers): 2.82 mL/min
half-life ([7]; Healthy volunteers): 23 h
Vd ([7]; Healthy volunteers): 5.1 L
CTL % cytotoxicity (B16 melanoma cells; [12]): 5.6 ± 0.9%
CTL % cytotoxicity (B16 melanoma cells; normal mice): <1%
Cytotoxic activity against autologous tumour cells (in words) (B16 melanoma cells; tumour-bearing mice): marked stimulation of CTL activity
Increase of CTL activity with respect to tumour controls (B16 melanoma cells; tumour-bearing mice): two-fold increase
Indirect radiosensibilizing effect via conditioned medium (in words, FIG. 8) (EMT-6 cells [8]): clearly more radiosensibilizing
B16 tumour growth (in words, FIG. 1) (B16 melanoma): partially inhibits tumour progression; also recorded: inhibited slightly but significantly
Survival time (MST) of mice (in words, FIG. 2) (B16 melanoma): slightly extends the survival time; also recorded: increased slightly but significantly
NK activity (in words) (YAC-1 cells; day 14): dramatic increase
cytotoxicity at 1 mg/kg (YAC-1 cells; Mus musculus, YAC-1, ip, read-out: NK % cytotoxicity): 6.3 ± 1.7%
NK cell activity (in words) (YAC-1 cells; normal mice, vs untreated controls): dramatic increase
NK % cytotoxicity (YAC-1 cells; normal mice, five mice): 10.39 ± 1.0 %
Number of cured animals/total number of animals ([3]; CY 25 mg/kg i.p. day 36, i.t. immunostimulant from day 43 (OM-174 200 μg x12, CpG 100 μg x12, BCG days 43 and 50)): 1/6
Antitumoral effect of single treatment on large, established PROb tumors (in words, FIG. 3) ([3]; agent alone, comparatively to untreated animals): no antitumoral effect
Effect of i.t. immunostimulant on the antitumor activity of CY (in words) ([3]; i.p. CY day 36 combined with i.t. immunostimulant from day 43): strongly enhanced
Complete and lasting tumor regression (animals) ([3]; i.p. CY day 36 followed by i.t. OM-174 from day 43): 4/6
NO production (in words, FIG. 6) (EMT-6 cells [9]; hypoxic (1% oxygen) condition): increased production of NO
NO production (in words, FIG. 6) (EMT-6 cells [9]; normal oxygen levels (21% oxygen)): low amounts of NO
Number of rats in carcinomatosis class 0 (PROb cells [1]): 2
Number of rats in carcinomatosis class 1 (PROb cells [1]): 3
Number of rats in carcinomatosis class 2 (PROb cells [1]): 2
Number of rats in carcinomatosis class 3 (PROb cells [1]): 2
Number of rats in carcinomatosis class 4 (PROb cells [1]): 1
Carcinomatosis classes versus Control group (Mann-Whitney test) (PROb cells [1]): significant difference
Ascites (PROb cells [1]): 1 mL
Therapeutic activity per se (in words) (ProB cells [10]; treatment started up to 14 days after tumour induction, WO 95/14026): strong therapeutic activity
Complete remissions (ProB cells [10]; treatment starts 14 days after the injection of the cancer cells, peritoneal carcinomatoses): 90%
Antitumour activity / survival (in words, FIG. 4) (PROb cells [4]): anticancer effect is lost
